Results from PubChem BioAssay AID1963834 (Molecular Pharmacology Branch, DTP, NCI, 2024).
pIC50: −log10 of the molar value. Values joined by “and” are separate entries in the source; they are usually repeats but may differ in a detail not shown here. Identical values can stand only once.

Test system: 873145-292-R-J1-PDC complex spheroid viability
Assay: Anticancer human tumor 873145-292-R-J1-PDC patient-derived renal clear cell carcinoma cell line growth inhibition [POLQ]
Details: for viability, T/C: stronger effect = lower value; for pIC50: curve of compound
Experimental: Multicellular complex tumor spheroid response to Polymerase (POL) inhibitors (novobiocin, ART-558, RP6685) in combination with a variety of drugs and investigational agents in selected tumor cell lines
The POL inhibitors (novobiocin, ART-558, and RP6685) were evaluated both individually and in combination with standard of care and investigational anticancer small molecules within a complex spheroid model of solid tumors. . Complex spheroids include a stromal component modeled by human endothelial cells (HUVEC) and fibroblasts modeled by human mesenchymal stem cells (MSCs). The concentration ranges selected for each drug and investigational agent were based upon clinically achievable concentrations if the clinical Cmax of the agent was known.
Compounds. The drugs and investigational agents: novobiocin (NSC847541), ART-558 (NSC835418), RP-6685 (NSC848927), peposertib (NSC802822), ceralasertib (NSC780249), elimusertib (NSC800525), camonsertib (NSC841442), AZD-1390 (NSC803789), olaparib (NSC753686), talazoparib (NSC767125), rucaparib (NSC756644), sotorasib (NSC818433), MRTX-1133 (NSC836407), SN-38 (NSC673596), topotecan (NSC609699), epotoside (NSC141540), doxorubicin (NSC123127), gemcitabine (NSC613327), 5-fluorouracil (NSC19893), paclitaxel (NSC125973), vemurafenib (NSC761431), MSA-2 (NSC828583), SN-011 (NSC837082), adavosertib (NSC754352), prexasertib (NSC758257), carboplatin (NSC241240) and oxaliplatin (NSC266046), were obtained from the National Cancer Institute (NCI) Developmental Therapeutics Program Chemical Repository (21). The FDA-approved anticancer drug set is available from the Developmental Therapeutics Program at https://dtp.cancer.gov/organization/dscb/obtaining/. […] The stock solutions were prepared in dimethyl sulfoxide (DMSO, Sigma-Aldrich, St. Louis, MO, cat. D2650), except for the platinum compounds which were prepared in saline (Quality Biological, Gaithersburg, MD, cat. 114-055-101), at 800-fold the tested concentration and stored at -70 degrees C prior to their use. All drugs and investigational agents were tested over a range starting from a high concentration at or near the clinical Cmax and decreasing in half-log increments. If the clinical Cmax for an agent had not been determined, the highest concentration tested was 10 microM, except for SN-38, which was tested at a high concentration of 1 microM.
Cell Culture. All cells were maintained in an incubator at 37 degrees C and 5% CO2 with 95% humidity. The PDC lines were cultured according to standard operating procedures established by the NCI PDMR (https://pdmr.cancer.gov). Table 3 of the manuscript, lists the cell lines along with the number of the three cell types plated to form the mct-spheroids and media for tumor cell growth. After thawing, all PDC lines, except 997537-175-T-J1-PDC and 415267-285-R-J2-PDC, were cultured in Matrigel-coated flasks prepared with a working solution of 1X Ham's F-12 nutrient mix, without supplementation (Thermo Fisher Scientific, cat. 11765054), 100 U/mL penicillin-streptomycin (Thermo Fisher Scientific, cat. 15140122), and 2.5% Matrigel (Corning Inc., Corning, NY, cat. 354248) for the first three passages. The two PDC lines 997537-175-T-J1-PDC and 415267-285-R-J2-PDC were cultured on uncoated flasks. The 857933-349-R-J2-PDC line was cultured in 6C/Colon 1B media containing advanced DMEM/F-12 (Thermo Fisher Scientific, cat. 12634028), 10 mM HEPES (Thermo Fisher Scientific, cat. 15630080), 1X GlutaMAX supplement (Thermo Fisher Scientific, cat. 35050061), 0.1 mg/mL primocin (InvivoGen, San Diego, CA, cat. ant-pm-2), 10% defined fetal bovine serum, heat inactivated (HyClone Laboratories Inc., Logan, UT, cat. SH30070.03HI), 50% L-WRN conditioned media (ATCC, cat. CRL-3276), 1.25 mM N-Acetyl-L-cysteine (Sigma-Aldrich, cat. A9165), 10 mM nicotinamide (Sigma-Aldrich, cat. N0636), 1X B-27 supplement (Thermo Fisher Scientific, cat. 17504044), 1X N-2 supplement (Thermo Fisher Scientific, cat. […]
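Also: spheroids exposed to compounds for 7 days before viability readout.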
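For viability, T/C in this document: luminescence signal used as surrogate for viable cell content; 100% = DMSO vehicle control viability.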

| SMILES | viability, T/C (compound 0.0316 µM) | viability, T/C (compound 0.1 µM) | viability, T/C (compound 0.316 µM) | viability, T/C (compound 1 µM) | viability, T/C (compound 3.16 µM) | viability, T/C (compound 10 µM) | pIC50 | viability, T/C (compound 0.00316 µM) | viability, T/C (compound 0.01 µM) | viability, T/C (compound 0.00949 µM) | viability, T/C (compound 0.03 µM) | viability, T/C (compound 0.0949 µM) | viability, T/C (compound 0.3 µM) | viability, T/C (compound 0.949 µM) | viability, T/C (compound 3 µM) | viability, T/C (compound 0.000316 µM) | viability, T/C (compound 0.001 µM) |
| --- | --- | --- | --- | --- | --- | --- | --- | --- | --- | --- | --- | --- | --- | --- | --- | --- | --- |
| C#Cc1c(F)ccc2cc(O)cc(-c3ncc4c(N5CC6CCC(C5)N6)nc(OCC56CCCN5CC(F)C6)nc4c3F)c12 (stereo unspecified) | 99.2% and 106% and 107% | 104% and 107% and 91.8% | 90.8% and 96.4% and 88.5% | 89% and 91.7% and 89.9% | 91.4% and 107% and 86% | 85% and 95.8% and 82.9% | < 5.00 | – | – | – | – | – | – | – | – | – | – |
| C=CC(=O)N1CCN(c2nc(=O)n(-c3c(C)ccnc3C(C)C)c3nc(-c4c(O)cccc4F)c(F)cc23)C(C)C1 (stereo unspecified) | 98.3% and 103% and 94.9% | 99.5% and 99.4% and 98.3% | 107% and 125% and 109% | 118% and 113% (2×) | 137% and 134% and 116% | 121% and 145% and 124% | < 5.00 | – | – | – | – | – | – | – | – | – | – |
| C=CCn1c(=O)c2cnc(Nc3ccc(N4CCN(C)CC4)cc3)nc2n1-c1cccc(C(C)(C)O)n1 | 104% and 92.5% and 97.3% | 101% and 97.8% and 97.9% | 76.4% and 84.9% and 85.7% | 74.7% and 77.3% and 80% | – | – | < 6.00 | 106% and 97.8% and 112% | 95.9% and 105% and 90.5% | – | – | – | – | – | – | – | – |
| CC(=O)O[C@H]1C(=O)[C@@]2(C)[C@H]([C@H](OC(=O)c3ccccc3)[C@]3(O)C[C@H](OC(=O)[C@H](O)[C@@H](NC(=O)c4ccccc4)c4ccccc4)C(C)=C1C3(C)C)[C@]1(OC(C)=O)CO[C@@H]1C[C@@H]2O | – | – | – | – | – | – | < 5.52 | – | – | 79.4% and 83.2% and 84.7% | 83.6% and 72.1% and 70.3% | 74% and 72.5% and 60.7% | 70.2% and 65.1% and 65.8% | 69.9% and 66.2% and 67.9% | 63.5% and 72.9% and 57.8% | – | – |
| CC(C)n1c(=O)n(C)c2cnc3cc(F)c(-c4ccc(OCCCN5CCCCC5)nc4)cc3c21 | 97.8% and 99.3% and 112% | 103% and 100% and 93.3% | 94% and 101% and 112% | 92.8% and 108% and 100% | 94.8% (2×) and 96.1% | 77.7% and 95.8% and 91.3% | < 5.00 | – | – | – | – | – | – | – | – | – | – |
| CC1COCCN1c1cc(-c2ccnn2C)c2ccnc(-c3ccn[nH]3)c2n1 (stereo unspecified) | 88.9% and 83.1% and 97% | 77.3% and 74.3% and 90% | 67.5% and 67.3% and 68.5% | 51.8% and 50.8% and 56.1% | 40% and 41.9% and 52.3% | 39.3% and 41.4% and 57.8% | 5.92 and < 5.00 | – | – | – | – | – | – | – | – | – | – |
| CC1COCCN1c1cc(C2(O)CC3CCC(C2)O3)c2cnn(-c3ccn[nH]3)c2n1 (stereo unspecified) | 86.7% and 86.2% and 97.9% | 84.8% and 72% and 82.1% | 56.8% and 49.1% and 60.9% | 48.6% and 43% and 55.3% | 40% and 39.9% and 48.1% | 31.9% and 32.5% and 41% | 6.13 and 6.41 and 5.74 | – | – | – | – | – | – | – | – | – | – |
| CC1COCCN1c1cc(C2(S(C)(=N)=O)CC2)nc(-c2ccnc3[nH]ccc23)n1 (stereo unspecified) | 91.7% and 96% and 106% | 97.2% and 92.7% and 96.5% | 113% and 91.9% and 99.5% | 88.5% and 94.4% and 104% | 81.9% and 85.5% and 81.5% | 58% and 64.2% and 54.1% | < 5.00 | – | – | – | – | – | – | – | – | – | – |
| CCCS(=O)(=O)Nc1ccc(F)c(C(=O)c2c[nH]c3ncc(-c4ccc(Cl)cc4)cc23)c1F | 113% and 104% and 102% | 96.8% and 107% and 99.6% | 109% and 103% and 107% | 95.2% and 107% and 104% | 109% and 98.7% and 92.9% | 76.7% and 72.3% and 60.6% | < 5.00 | – | – | – | – | – | – | – | – | – | – |
| CC[C@@]1(O)C(=O)OCc2c1cc1n(c2=O)Cc2cc3c(CN(C)C)c(O)ccc3nc2-1 | 84.9% and 95.7% and 77.4% | 59.5% and 63.6% and 48.9% | – | – | – | – | < 7.00 and 7.02 | 93.4% and 95.2% and 101% | 92.8% and 107% and 103% | – | – | – | – | – | – | 96.5% and 108% and 99.8% | 94.6% and 99.2% and 92.7% |
| CCc1c2c(nc3ccc(O)cc13)-c1cc3c(c(=O)n1C2)COC(=O)[C@]3(O)CC | 50.6% and 60% and 54.1% | 49.2% and 52.5% and 41.1% | 37.8% and 45.3% and 34.1% | 30.3% and 37.3% and 29.6% | – | – | 7.21 and 7.00 and 7.32 | 94.8% and 105% and 94% | 77.7% and 88.3% and 80.5% | – | – | – | – | – | – | – | – |
| CCc1cc2c(N3CCc4c(cc(Cn5ccnc5)cc4-c4cn(C)nc4C(F)(F)F)C3=O)cc(C)nc2c(OC)n1 | 95.3% and 101% and 104% | 96.6% and 94.7% and 102% | 88.5% and 93.9% and 90.2% | 94.2% and 85.1% and 80.9% | 85.1% and 79.1% and 86.5% | 80.2% and 85.1% and 81% | < 5.00 | – | – | – | – | – | – | – | – | – | – |
| CCc1cc2c(N3CCc4c(cc(Cn5ccnc5)cc4-c4cn(C)nc4C(F)(F)F)C3=O)ccnc2c(OC)n1 | 107% and 99% and 101% | 89.9% and 92.2% and 96.8% | 89.1% and 97.3% and 84.2% | 92.1% and 87.7% and 87.1% | 86.4% and 98% and 86.1% | 75.7% and 91.9% and 81.5% | < 5.00 | – | – | – | – | – | – | – | – | – | – |
